Assay results from patent US8974806B2, “Method for producing aqueous active substance compositions of active substances that are hardly soluble in water” (priority 2004, dated 2015).

Tests used:
[1] = system: wood-destroying soil termites (Reticulitermes santonensis); assay: Forced termite test on treated Southern Yellow Pine wood samples (AWPA E1-97) after leaching stress (DIN EN 84); assay type: in vivo; settings: after leaching (DIN EN 84); 4-week test; lower value = wood no longer sufficiently protected, higher value = minimum concentration for complete protection (score 10)
Procedure: Using water, the aqueous active compound composition according to the invention from example 5 was diluted to three different active compound concentrations. For comparison, α-cypermethrin was dissolved in acetone, and the solution was diluted to the corresponding active compound concentrations using further acetone.
To determine the activity thresholds of the composition according to the invention against wood-destroying soil termites (Reticulitermes santonensis), wood samples from Pinus spp. of the dimensions 25×25×6 mm^3 (Southern Yellow Pine), which met the American test standard AWPA E1-97 (see “Standard method for laboratory evaluation to determine resistance to subterranean termites”, American Wood-Preservers' Association, 2001) were tested in a forced test after leaching stress according to DIN EN 84: 1997-01 (see “accelerated aging of treated wood prior to biological testings”, European Committee for Standardization).
The destruction of the wood caused by the termite attack was, after a 4-week test period, evaluated by visual scoring of the sample woods in accordance with AWPA E1-97. In addition, the mortality rate among the termites was estimated. […]
For the aqueous active compound composition according to the invention, the threshold for α-cypermethrin after leaching was determined to be 9-21 g/m^3. […]

[2] = system: Coniophora puteana BAM Ebw. 15; assay: Agar block method (Bravery test, similar to EN 113) on Southern Yellow Pine wood samples; assay type: cell-based; settings: C. puteana, 6 weeks, weight loss <3% = sufficient protection
Procedure: (§1) The activity threshold of the composition according to the invention from example 1 against wood-destroying Basidiomycetes was determined by the agar block method on wood samples from Pinus spp. (Southern Yellow Pine) of the dimensions 40×15×4 mm^3. The test method with wood samples reduced in size, known as bravery test, is very similar to EN 113 and serves to determine the prophylactic action of wood preservatives against wood-destroying fungi (see A. F. Bravery, Intern. Res. Group Wood Pres., Doc. No. IRG/WP/2113, 5S., Stockholm 1978). For comparison, a solution of epoxiconazole in acetone was tested under the same conditions.
(§2) The wood samples impregnated with the composition according to the invention were, with and without leaching stress, tested according to EN 84. The test was carried out using four different active compound concentrations and in each case 5 parallel samples per active compound concentration and test fungus. The test fungi used were Coniophora puteana BAM Ebw. 15, Poria placenta FPRL 280 and Coriolus versicolor CTB 863A. The destruction of the wood caused by the fungal attack was evaluated using the weight loss of the sample woods, which was determined after 6 weeks. If the weight loss is less than 3% by weight, based on the initial dry weight of the test sample, the protection of the wood achieved by the preservative at a certain active compound concentration is considered to be sufficient. The activity concentration threshold is stated in two concentrations.
(§3) The values determined for a solution of the active compound in acetone are shown for comparison.

Poria placenta FPRL 280 = assay: as above; assay type: cell-based; settings: P. placenta, 6 weeks, weight loss <3% = sufficient protection
Procedure: as §1, §2, §3

Structure (SMILES)	threshold for α-cypermethrin after leaching [1]	Activity thresholds, with leaching ([2]; with leaching (EN 84))	Activity thresholds, without leaching ([2]; without leaching) [g/m^3]	Activity thresholds, with leaching (Poria placenta FPRL 280; with leaching (EN 84))	Activity thresholds, without leaching (Poria placenta FPRL 280; without leaching) [g/m^3]
CC1(C)C(C=C(Cl)Cl)C1C(=O)OC(C#N)c1cccc(Oc2ccccc2)c1 (stereo not drawn) [α-cypermethrin]	above 21 g/m^3	–	–	–	–
Fc1ccc([C@]2(Cn3cncn3)O[C@H]2c2ccccc2Cl)cc1 (racemic) [Solution of epoxiconazole, epoxiconazole]	–	110-160 g/m^3	<190	110-180 g/m^3	<190
